Read-outs that look alike come from different tables or passages of the source.
Tests used:
[1] = Hygroscopicity: water vapour sorption/desorption isotherm (DVS-1000); assay type: physicochemical; conditions: 25° C./60% relative humidity, in comparison with weight equilibrated at 0% relative humidity at 25° C.
Protocol: The hygroscopicity of the 2-(n-propyl)quinoline camsylate crystals is evaluated by studying the sorption/desorption isotherm of water in the vapor phase on a device of DVS-1000 type sold by SMS.
The sample, analyzed in a quartz pan with a specimen size of the order of 10 mg, is subjected to two cycles of variation in relative humidity (RH) which are linked together continuously. Each cycle comprises two stages, adsorption and then desorption of water, during which the relative humidity in the measuring chamber is increased and then decreased gradually according to the conditions described in table 2.
The sample is first dried under a stream of filtered dry air until its weight has stabilized. The stages of adsorption and of desorption are then made successively. The carrier gas used to maintain the relative humidity at a set percentage is air dried upstream of the device and delivered at a flow rate of 100 ml/min. During the progression of the program, the temperature in the measuring chamber is maintained at 25° C.

female CD-1 mice [2] = conditions: 5 animals
Protocol: (§1) 250 mg of carboxymethylcellulose are dissolved in 50 ml of a 5% glucose solution. 5 ml aliquots containing 0.5% of Tween 80 are emulsified with the quinoline salts (final concentrations at 0.4 mg/ml, 4 mg/ml and 40 mg/ml). The emulsions are subsequently homogenized. The emulsions are administered by force feeding in a single dose to four groups of five female CD-1 mice at the concentrations of 10 mg/kg, 100 mg/kg and 1000 mg/kg and without compounds (control group). The control group receives a glucose-comprising emulsion containing 0.5% of carboxymethyl-cellulose (CMC) and […]. The behavior of the animals is observed and the number of deaths is counted after 1 min, 15 min, 30 min, 1 h, 4 h, 8 h and each day for 14 days. On the final day, a blood sample is taken. Biochemical analyses are carried out in order to evaluate the nephrotoxicity and the hepatotoxicity, the levels of creatinine, of aspartate aminotransferase (ASAT), of alanine aminotransferase (ALAI) and of cholesterol being quantitatively determined.

female CD-1 mice [3] = assay: Acute toxicity: blood biochemical parameters on the final day (nephrotoxicity, hepatotoxicity); conditions: blood sample on final day (day 14)
Protocol: as §1

[4] = Chemical stability of solutions in five solvents, HPLC daily for 9 days; conditions: 200 μg/ml in methanol, pH 7 buffer, camphorsulfonic acid pH 2, DMSO, CMC 0.5%/Tween 80 0.5%, 4° C., ambient with light, ambient without light
Protocol: The quinoline salts are dissolved at a concentration of 200 μg/ml in five different solvents: methanol, an aqueous solution buffered at pH 7, an aqueous camphorsulfonic acid solution at pH 2, dimethyl sulfoxide (DMSO) and an aqueous solution comprising a mixture of carboxymethylcellulose at 0.5% and Tween 80 at 0.5%.
Each preparation is divided into three parts which are stored under different conditions of temperature and of luminosity: at 4° C., at ambient temperature under the influence of light and at ambient temperature with the exclusion of light. The samples are diluted (1:20) and then analyzed by high performance liquid chromotography (HPLC) daily for 9 days.
Use was made, in carrying out the high performance liquid chromotography analysis, of a Waters LC system comprising a model 600 pump with inline degassing and, as detector, a 996 photodiode detector device. The acquisition of the data was carried out by the use of the Empower® program (Waters, France). The column used was a Symmetry Shield RP18, 3.5 μm 4.6×150 mm. […] The UV absorbance spectra were recorded at between 210 and 400 nm. The chromatogram of the propyl salt was recorded at 233 nm and that of the alcohol derivative at 249 nm.

Compound: CC1(C)C2CCC1(CS(=O)(=O)O)C(=O)C2.CCCc1ccc2ccccc2n1 (centres unmarked) [Camphorsulfonate salt of 2-(n-propyl)quinoline]
- increase in weight (water sorption) [1]: less than 2%
- acute toxicity observation (female CD-1 mice [2]; single dose 10 mg/kg oral route): absence of toxicity
- acute toxicity observation (female CD-1 mice [2]; single dose 100 mg/kg oral route): absence of toxicity
- mice showing signs of lethargy (female CD-1 mice [2]; single dose 1 g/kg oral route, t15 min): t15 min = 3 mice showed
- lethargic mice (female CD-1 mice [2]; single dose 1 g/kg oral route, t1 h): t1 h = 2 lethargic mice
- acute toxicity observation (female CD-1 mice [2]; single dose 1 g/kg oral route, t4 h): t4 h = absence of toxicity
- ALAT (female CD-1 mice [3]; dose 10 mg/kg oral): 215 ± 123 IU/l
- ASAT (female CD-1 mice [3]; dose 10 mg/kg oral): 410 ± 57 IU/l
- Cholesterol (female CD-1 mice [3]; dose 10 mg/kg oral): 3.9 ± 0.3 mM
- Creatinine (female CD-1 mice [3]; dose 10 mg/kg oral): <18 µM
- ALAT (female CD-1 mice [3]; dose 100 mg/kg oral): 168 ± 67 IU/l
- ASAT (female CD-1 mice [3]; dose 100 mg/kg oral): 515 ± 72 IU/l
- Cholesterol (female CD-1 mice [3]; dose 100 mg/kg oral): 4.1 ± 0.5 mM
- Creatinine (female CD-1 mice [3]; dose 100 mg/kg oral): <18 µM
- ALAT (female CD-1 mice [3]; dose 1 g/kg oral): 199 ± 89 IU/l
- ASAT (female CD-1 mice [3]; dose 1 g/kg oral): 422 ± 187 IU/l
- Cholesterol (female CD-1 mice [3]; dose 1 g/kg oral): 3.8 ± 0.4 mM
- Creatinine (female CD-1 mice [3]; dose 1 g/kg oral): <18 µM
- chemical stability in solution ([4]; listed as 2-(n-propyl)quinoline in the form of the camphorsulfonic acid salt): chemical stability compatible with the development of a medicament
- chemical stability in solution ([4]; listed as propyl salt): stable whatever the conditions tested
